Results from patent publication US8802664B2 (Bioproject, priority 2010, dated 2014).

Target: T1, human H4 receptor (Homo sapiens, UniProt Q9H3N8)
T1 construct: expressed in transfected cells
Assay: [3H]Histamine binding on membranes of CHO cells stably expressing human H4 receptor
Conditions: not given
Method in brief: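 CHO-hH4 membranes 20 μg/well; buffer 50 mM Tris/HCl, 0.5 mM EDTA, pH 7.4; NSB: 10 μM JNJ 7777120 (BP1.2404); GF/B filtration (PEI-presoaked), 3 ice-cold washes; scintillation counting.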

T1 sequence (Q9H3N8 whole entry): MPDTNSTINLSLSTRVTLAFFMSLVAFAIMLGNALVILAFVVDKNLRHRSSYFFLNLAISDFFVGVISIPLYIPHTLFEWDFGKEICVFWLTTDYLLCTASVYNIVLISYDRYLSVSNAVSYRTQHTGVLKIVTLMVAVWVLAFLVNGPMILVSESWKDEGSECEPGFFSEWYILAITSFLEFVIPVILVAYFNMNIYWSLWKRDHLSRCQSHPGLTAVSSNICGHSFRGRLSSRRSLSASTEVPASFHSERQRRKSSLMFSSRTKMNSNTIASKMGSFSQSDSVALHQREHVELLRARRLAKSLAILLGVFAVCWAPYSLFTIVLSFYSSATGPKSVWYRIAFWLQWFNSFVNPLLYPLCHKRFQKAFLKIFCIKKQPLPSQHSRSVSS

**Q.** How did the Ki or IC50 activity class turn out when `CN1CCC(OC(c2cccc(CCCCCCN)c2)c2nc3ccccc3s2)CC1` (stereo not shown) [Example 325, 6-{3-[benzothiazol-2-yl(1-methylpiperidin-4-yloxy)methyl]phenyl}hexylamine] was run?
**A.** < 30 nM

**Q.** For `CN1CCC(OC(c2cccc(-c3ccc(F)cc3)c2)c2nc3ccccc3s2)CC1` (stereo not shown) [Example 136, 2-[(4′-fluorobiphenyl-3-yl)(1-methylpiperidin-4-yloxy)methyl]benzothiazole], which Ki or IC50 activity class is on record?
**A.** < 300 nM

**Q.** For `CN1CCC(OC(c2cccc(-c3cccc(CO)c3)c2)c2nc3ccccc3s2)CC1` (stereo not shown) [Example 54], which Ki or IC50 activity class is on record?
**A.** < 300 nM

**Q.** For `CN1CCC(OC(c2cccc(OC3CCC(N)C3)c2)c2nc3ccccc3s2)CC1` (stereo not shown) [Example 453], which Ki or IC50 activity class is on record?
**A.** < 30 nM

**Q.** How did the Ki or IC50 activity class turn out when `CN1CCC(OC(c2ccc([N+](=O)[O-])cc2)c2nc3ccccc3[nH]2)CC1` (stereo not shown) [Example 447, 2-[(1-methylpiperidin-4-yloxy)(4-nitrophenyl)methyl]-1H-benzimidazole] was run?
**A.** < 1000 nM

**Q.** With `CN1CCC(OC(c2cccc(OCCCl)c2)c2nc3ccccc3s2)CC1` (stereo not shown) [Example 354, 2-[[3-(2-Chloroethoxy)phenyl](1-methylpiperidin-4-yloxy)methyl]benzothiazole] as the molecule, how does the Ki or IC50 activity class read?
**A.** < 30 nM

**Q.** Which Ki or IC50 activity class does the source give for `COc1cccc(-c2cccc(C(OC3CCN(C)CC3)c3nc4ccccc4s3)c2)c1` (stereo not shown) [Example 99, 2-[(3′-methoxybiphenyl-3-yl)(1-methylpiperidin-4-yloxy)methyl]benzothiazole] here?
**A.** < 300 nM

**Q.** Which Ki or IC50 activity class does the source give for `CN1CCC(OC(c2cccc(C#CCCCCN)c2)c2nc3ccccc3[nH]2)CC1` (stereo not shown) [Example 337, 6-{3-[(1H-benzimidazol-2-yl)(1-methylpiperidin-4-yloxy)methyl]phenyl}hex-5-ynylamine] here?
**A.** < 30 nM

**Q.** `CSc1cccc(-c2cccc(C(OC3CCN(C)CC3)c3nc4ccccc4[nH]3)c2)c1` (stereo not shown) [Example 116, 2-[(1-methylpiperidin-4-yloxy)(3′-methylsulfanylbiphenyl-3-yl)methyl]-1H-benzimidazole] was tested. Which Ki or IC50 activity class did it give?
**A.** < 300 nM

**Q.** With `CN1CCC(OC(c2cccc(SCCCCO)c2)c2nc3ccccc3[nH]2)CC1` (stereo not shown) [Example 248, 4-{3-[(1H-benzimidazol-2-yl)(1-methylpiperidin-4-yloxy)methyl]phenylsulfanyl}butan-1-ol] as the molecule, how does the Ki or IC50 activity class read?
**A.** < 300 nM

**Q.** With `CN1CCC(OC(c2cccc(-c3cccc(F)c3)c2)c2nc3ccccc3[nH]2)CC1` (stereo not shown) [Example 109, 2-[(3′-fluoro-biphenyl-3-yl)(1-methylpiperidin-4-yloxy)methyl]-1H-benzimidazole] as the molecule, how does the Ki or IC50 activity class read?
**A.** < 300 nM

**Q.** Which Ki or IC50 activity class does the source give for `CN1CCC(OC(c2cccc(SCCN)c2)c2nc3ccccc3[nH]2)CC1` (stereo not shown) [Example 249, 2-{3-[(1H-benzimidazol-2-yl)(1-methylpiperidin-4-yloxy)methyl]phenylsulfanyl}ethylamine] here?
**A.** < 300 nM

**Q.** How did the Ki or IC50 activity class turn out when `CN1CCC(OC(c2cccc(C#N)c2)c2nc3ccccc3s2)CC1` (stereo not shown) [Example 197, 3-[benzothiazol-2-yl(1-methylpiperidin-4-yloxy)methyl]benzonitrile] was run?
**A.** < 30 nM

**Q.** With `CN1CCC(OC(c2cccc(OCCCCCNCCCCN)c2)c2nc3ccccc3[nH]2)CC1` (stereo not shown) [Example 419, N1-(5-{3-[(1H-benzimidazol-2-yl)(1-methylpiperidin-4-yloxy)methyl]phenoxy}pentyl)butane-1,4-diamine] as the molecule, how does the Ki or IC50 activity class read?
**A.** < 1000 nM

**Q.** For `CN1CCC(OC(c2cccc(C=CCCCO)c2)c2nc3ccccc3s2)CC1` (stereo not shown) [Example 390, 5-{3-[(benzothiazol-2-yl)(1-methylpiperidin-4-yloxy)methyl]phenyl}pent-4-en-1-ol], which Ki or IC50 activity class is on record?
**A.** < 30 nM

**Q.** How did the Ki or IC50 activity class turn out when `CN1CCC(NC(c2cccc(SCc3ccccc3)c2)c2nc3ccccc3s2)CC1` (stereo not shown) [Example 107, [benzothiazol-2-yl(3-benzylsulfanylphenyl)methyl](1-methylpiperidin-4-yl)amine] was run?
**A.** < 30 nM

**Q.** Which Ki or IC50 activity class does the source give for `CN1CCC(OC(c2ccc3occc3c2)c2nc3ccccc3s2)CC1` (stereo not shown) [Example 46, 2-[benzofuran-5-yl(1-methylpiperidin-4-yloxy)methyl]benzothiazole] here?
**A.** < 300 nM

**Q.** `CN1CCC(OC(c2cccc(OCCF)c2)c2nc3ccccc3s2)CC1` (stereo not shown) [Example 163, 2-[[3-(2-fluoroethoxy)phenyl](1-methylpiperidin-4-yloxy)methyl]benzothiazole] was tested. Which Ki or IC50 activity class did it give?
**A.** < 30 nM

**Q.** Which Ki or IC50 activity class does the source give for `CN1CCC(OC(c2cccc(SCC(O)CO)c2)c2nc3ccccc3[nH]2)CC1` (stereo not shown) [Example 288, 3-{3-[(1H-benzimidazol-2-yl)(1-methylpiperidin-4-yloxy)methyl]phenylsulfanyl}propane-1,2-diol] here?
**A.** < 1000 nM

**Q.** `CC(O)COCC#Cc1cccc(C(OC2CCN(C)CC2)c2nc3ccccc3s2)c1` (stereo not shown) [Example 276, 1-(3-{3-[benzothiazol-2-yl(1-methylpiperidin-4-yloxy)methyl]phenyl}prop-2-ynyloxy)-propan-2-ol] was tested. Which Ki or IC50 activity class did it give?
**A.** < 30 nM

**Q.** `CN1CCC(OC(c2cccc(C=CCN)c2)c2nc3ccccc3[nH]2)CC1` (stereo not shown) [Example 488] was tested. Which Ki or IC50 activity class did it give?
**A.** < 1000 nM

**Q.** Which Ki or IC50 activity class does the source give for `CC(=O)COCC#Cc1cccc(C(OC2CCN(C)CC2)c2nc3ccccc3s2)c1` (stereo not shown) [Example 275, 1-(3-{3-[benzothiazol-2-yl(1-methylpiperidin-4-yloxy)methyl]phenyl}prop-2-ynyloxy)-propan-2-one] here?
**A.** < 300 nM

**Q.** For `CN1CCC(OC(c2cccc(-c3cccc([N+](=O)[O-])c3)c2)c2nc3ccccc3s2)CC1` (stereo not shown) [Example 97, 2-[(1-methylpiperidin-4-yloxy)(3′-nitrobiphenyl-3-yl)methyl]benzothiazole], which Ki or IC50 activity class is on record?
**A.** < 300 nM

**Q.** `CCCCOc1cccc(C(NC2CCN(C)CC2)c2nc3ccccc3s2)c1` (stereo not shown) [Example 91, [benzothiazol-2-yl(3-butoxyphenyl)methyl](1-methylpiperidin-4-yl)amine] was tested. Which Ki or IC50 activity class did it give?
**A.** < 30 nM

**Q.** For `COCCOc1cccc(C(OC2CCN(C)CC2)c2nc3ccccc3s2)c1` (stereo not shown) [Example 277, 2-[[3-(2-methoxyethoxy)phenyl](1-methylpiperidin-4-yloxy)methyl]benzothiazole], which Ki or IC50 activity class is on record?
**A.** < 300 nM

**Q.** `CN1CCC(OC(c2cccc(SC[C@H]3C[C@H]3CN)c2)c2nc3ccccc3[nH]2)CC1` (stereo partly shown) [Example 494] was tested. Which Ki or IC50 activity class did it give?
**A.** < 30 nM

**Q.** `CN1CCC(OC(c2cccc(C(=O)N(C)Cc3ccccc3)c2)c2nc3ccccc3s2)CC1` (stereo not shown) [Example 219, 3-[benzothiazol-2-yl(1-methylpiperidin-4-yloxy)methyl]-N-benzyl-N-methylbenzamide] was tested. Which Ki or IC50 activity class did it give?
**A.** < 1000 nM

**Q.** With `CCCOc1ccc(F)c(C(OC2CCN(C)CC2)c2nc3ccccc3[nH]2)c1` (stereo not shown) [Example 519] as the molecule, how does the Ki or IC50 activity class read?
**A.** < 30 nM

**Q.** For `CCSc1cccc(C(OC2CCN(C)CC2)c2nc3ccccc3s2)c1` (stereo not shown) [Example 159, 2-[(3-ethylsulfanylphenyl)(1-methylpiperidin-4-yloxy)methyl]benzothiazole], which Ki or IC50 activity class is on record?
**A.** < 30 nM

**Q.** With `CN1CCC(OC(c2nc3ccccc3[nH]2)c2ccccc2O)CC1` (single isomer, unassigned) [Example 627, 2-[(1H-benzimidazol-2-yl)(1-methylpiperidin-4-yloxy)methyl]phenol] as the molecule, how does the Ki or IC50 activity class read?
**A.** < 30 nM

**Q.** How did the Ki or IC50 activity class turn out when `CN1CCC(OC(c2cccc(OCCCCCN)c2)c2nc3ccccc3[nH]2)CC1` (stereo not shown) [Example 400, 5-{3-[(1H-benzimidazol-2-yl)(1-methylpiperidin-4-yloxy)methyl]phenoxy}pentylamine] was run?
**A.** < 30 nM

**Q.** For `CCOC(=O)c1cccc(C(OC2CCN(C)CC2)c2nc3ccccc3s2)c1` (stereo not shown) [Example 206, 3-[benzothiazol-2-yl(1-methylpiperidin-4-yloxy)methyl]benzoic acid ethyl ester], which Ki or IC50 activity class is on record?
**A.** < 300 nM

**Q.** How did the Ki or IC50 activity class turn out when `CN1CCC(OC(c2nc3ccccc3[nH]2)c2ccc(F)cc2F)CC1` (stereo not shown) [Example 221, 2-[(2,4-difluorophenyl)(1-methylpiperidin-4-yloxy)methyl]-1H-benzimidazole] was run?
**A.** < 300 nM

**Q.** Which Ki or IC50 activity class does the source give for `CN1CCC(OC(c2cccc(C3=CCN(C(=N)N)CC3)c2)c2nc3ccccc3[nH]2)CC1` (stereo not shown) [Example 353, 4-{3-[(1H-benzimidazol-2-yl)(1-methylpiperidin-4-yloxy)methyl]phenyl}-3,6-dihydro-2H-pyridine-1-carboxamidine] here?
**A.** < 300 nM

**Q.** For `CN1CCC(OC(c2nc3ccccc3[nH]2)c2cc(C#CCCCCN)ccc2F)CC1` (stereo not shown) [Example 557, 6-{3-[(1H-benzimidazol-2-yl)(1-methylpiperidin-4-yloxy)methyl]-4-fluorophenyl}hex-5-ynylamine], which Ki or IC50 activity class is on record?
**A.** < 30 nM

**Q.** Which Ki or IC50 activity class does the source give for `CN1CCC(OC(c2cccc(Oc3ccccc3)c2)c2nc3ccccc3s2)CC1` (stereo not shown) [Example 28, 2-[(1-methylpiperidin-4-yloxy)(3-phenoxy-phenyl)methyl]benzothiazole] here?
**A.** < 300 nM

**Q.** For `CN1CCC(OC(c2cccc(C#N)c2)c2nc3ccccc3[nH]2)CC1` (stereo not shown) [Example 172, 3-[(1H-benzimidazol-2-yl)(1-methylpiperidin-4-yloxy)methyl]benzonitrile], which Ki or IC50 activity class is on record?
**A.** < 300 nM

**Q.** Which Ki or IC50 activity class does the source give for `CN1CCC(OC(c2cccc(OC(F)(F)F)c2)c2nc3ccccc3s2)CC1` (stereo not shown) [Example 23, 2-[(1-methylpiperidin-4-yloxy)(3-trifluoromethoxyphenyl)methyl]benzothiazole] here?
**A.** < 30 nM

**Q.** Which Ki or IC50 activity class does the source give for `CN1CCC(OC(c2cccc(C#CCCCn3ccnn3)c2)c2nc3ccccc3[nH]2)CC1` (stereo not shown) [Example 417, 2-{(1-methylpiperidin-4-yloxy)[3-(5-[1,2,3]triazol-1-ylpent-1-ynyl)phenyl]methyl}-1H-benzimidazole] here?
**A.** < 1000 nM

**Q.** `Cc1cc(F)cc(C(OC2CCN(C)CC2)c2nc3ccccc3s2)c1` (stereo not shown) [Example 38, 2-[(3-fluoro-5-methylphenyl)(1-methylpiperidin-4-yloxy)methyl]benzothiazole] was tested. Which Ki or IC50 activity class did it give?
**A.** < 300 nM

**Q.** Which Ki or IC50 activity class does the source give for `CN1CCC(NC(c2ccccc2)c2nc3ccccc3s2)CC1` (stereo not shown) [Example 9, (benzothiazol-2-yl-phenylmethyl)(1-methylpiperidin-4-yl)amine] here?
**A.** < 30 nM

**Q.** For `CC(=O)c1ccc(-c2cccc(C(OC3CCN(C)CC3)c3nc4ccccc4[nH]3)c2)cc1` (stereo not shown) [Example 108, 1-{3′-[(1H-benzimidazol-2-yl)(1-methylpiperidin-4-yloxy)methyl]biphenyl-4-yl}ethanone], which Ki or IC50 activity class is on record?
**A.** < 300 nM

Same assay, conditions: human H4 receptor; evaluated in the GTPγ[35S] assay or in the [3H]histamine binding assay (not stated which per compound); Ki or IC50 class

**Q.** Which Ki or IC50 activity class does the source give for `CC(C)C(=O)N(CCSc1cccc(C(OC2CCN(C)CC2)c2nc3ccccc3[nH]2)c1)C(=N)N` (stereo not shown) [Example 478] here?
**A.** < 300 nM
